ChEMBL document CHEMBL4265882, “Tetrahydroquinoline and tetrahydroisoquinoline derivatives as potential selective PDE4B inhibitors” (Bioorg Med Chem Lett, 2018)

Molecular target: 3',5'-cyclic-AMP phosphodiesterase 4B (Homo sapiens, UniProt Q07343)
Assay: Inhibition of human U937 cells-derived PDE4B using [3H]-cAMP as substrate after 30 mins

3',5'-cyclic-AMP phosphodiesterase 4B, sequence (Q07343 whole entry): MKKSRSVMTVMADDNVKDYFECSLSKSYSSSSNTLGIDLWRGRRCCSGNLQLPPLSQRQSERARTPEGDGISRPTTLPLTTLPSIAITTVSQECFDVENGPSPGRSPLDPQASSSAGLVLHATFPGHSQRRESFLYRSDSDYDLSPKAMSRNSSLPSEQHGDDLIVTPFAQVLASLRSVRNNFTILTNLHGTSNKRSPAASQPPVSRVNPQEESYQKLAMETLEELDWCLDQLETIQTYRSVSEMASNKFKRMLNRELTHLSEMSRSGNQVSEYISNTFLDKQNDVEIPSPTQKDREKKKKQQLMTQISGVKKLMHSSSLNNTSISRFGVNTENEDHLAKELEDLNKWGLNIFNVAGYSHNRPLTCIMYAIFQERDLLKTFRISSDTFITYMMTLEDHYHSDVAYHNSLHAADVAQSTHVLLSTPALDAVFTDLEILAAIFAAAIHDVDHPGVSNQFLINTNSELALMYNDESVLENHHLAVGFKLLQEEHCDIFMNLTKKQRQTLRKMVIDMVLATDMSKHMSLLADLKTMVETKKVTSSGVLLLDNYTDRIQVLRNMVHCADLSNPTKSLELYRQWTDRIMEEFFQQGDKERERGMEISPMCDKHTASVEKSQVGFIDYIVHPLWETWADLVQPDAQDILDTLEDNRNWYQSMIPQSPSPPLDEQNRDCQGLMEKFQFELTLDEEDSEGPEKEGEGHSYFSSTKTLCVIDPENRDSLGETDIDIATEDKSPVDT

| SMILES | IC50 [µM] |
| --- | --- |
| O=C(c1ccc(-c2ccc(F)cc2F)o1)N1CCCc2ccccc21 | 2.6 |
| O=C(c1ccc(-c2ccc([N+](=O)[O-])cc2)o1)N1CCc2ccccc2C1 | 15.8 |
| COc1ccc(-c2ccc(C(=O)N3CCc4ccccc4C3)o2)cc1 | 2.6 |
| O=C(c1ccc(-c2ccccc2[N+](=O)[O-])o1)N1CCCc2ccccc21 | 66.9 |
| O=C(c1ccc(-c2cccc(Cl)c2)o1)N1CCc2ccccc2C1 | 21.1 |
| O=C(c1ccc(-c2ccccc2)o1)N1CCCc2ccccc21 | 70.9 |
| O=C(c1ccc(-c2ccc(F)cc2F)o1)N1CCc2ccccc2C1 | 3 |
| O=C(c1ccc(-c2cccc([N+](=O)[O-])c2)o1)N1CCCc2ccccc21 | 30.9 |
| O=C(c1ccc(-c2cccc(F)c2)o1)N1CCc2ccccc2C1 | 25.7 |
| Cc1ccc(-c2ccc(C(=O)N3CCc4ccccc4C3)o2)cc1 | 9.4 |
| O=C(c1ccc(-c2ccc(Cl)cc2)o1)N1CCCc2ccccc21 | 3.5 |
| O=C(c1ccc(-c2c(F)cccc2F)o1)N1CCc2ccccc2C1 | 17.1 |
| O=C(c1ccc(-c2ccc(F)cc2)o1)N1CCCc2ccccc21 | 6.1 |

Second part, the compound after the results:

| IC50 [µM] | SMILES |
| --- | --- |
| 79.6 | O=C(c1ccc(-c2ccccc2)o1)N1CCc2ccccc2C1 |
| 58.4 | O=C(c1ccc(-c2ccc(Br)cc2)o1)N1CCc2ccccc2C1 |
| 66.3 | O=C(c1ccc(-c2ccccc2[N+](=O)[O-])o1)N1CCc2ccccc2C1 |
| 46.8 | O=C(c1ccc(-c2ccc(Br)cc2)o1)N1CCCc2ccccc21 |
| 51.6 | O=C(c1ccc(-c2ccccc2Cl)o1)N1CCc2ccccc2C1 |
| 41.6 | O=C(c1ccc(-c2ccccc2Cl)o1)N1CCCc2ccccc21 |
| 46.1 | O=C(c1ccc(-c2ccccc2F)o1)N1CCc2ccccc2C1 |
| 50.3 | O=C(c1ccc(-c2ccccc2F)o1)N1CCCc2ccccc21 |
| 15.2 | O=C(c1ccc(-c2c(F)cccc2F)o1)N1CCCc2ccccc21 |
| 39.9 | O=C(c1ccc(-c2cccc([N+](=O)[O-])c2)o1)N1CCc2ccccc2C1 |
| 22.2 | O=C(c1ccc(-c2cccc(F)c2)o1)N1CCCc2ccccc21 |
| 18.9 | O=C(c1ccc(-c2cccc(Cl)c2)o1)N1CCCc2ccccc21 |
| 12.1 | O=C(c1ccc(-c2ccc([N+](=O)[O-])cc2)o1)N1CCCc2ccccc21 |
| 9.4 | Cc1ccc(-c2ccc(C(=O)N3CCCc4ccccc43)o2)cc1 |
| 4.1 | O=C(c1ccc(-c2ccc(Cl)cc2)o1)N1CCc2ccccc2C1 |
| 7.4 | O=C(c1ccc(-c2ccc(F)cc2)o1)N1CCc2ccccc2C1 |
| 1.5 | COc1ccc(-c2ccc(C(=O)N3CCCc4ccccc43)o2)cc1 |

System: not listed separately
Assay: Inhibition of PDE4 in human PBMC assessed as reduction in LPS-stimulated TNFalpha release preincubated for 30 mins followed by LPS stimulation for 18 hrs by TR-FRET assay
Format: cell-based

| SMILES | IC50 [µM] |
| --- | --- |
| O=C(c1ccc(-c2ccc(F)cc2F)o1)N1CCCc2ccccc21 | 16.2 |
| O=C(c1ccc(-c2ccc([N+](=O)[O-])cc2)o1)N1CCc2ccccc2C1 | 46.3 |
| COc1ccc(-c2ccc(C(=O)N3CCc4ccccc4C3)o2)cc1 | 13.6 |
| O=C(c1ccc(-c2ccccc2[N+](=O)[O-])o1)N1CCCc2ccccc21 | 128 |
| O=C(c1ccc(-c2cccc(Cl)c2)o1)N1CCc2ccccc2C1 | 57.1 |
| O=C(c1ccc(-c2ccccc2)o1)N1CCCc2ccccc21 | 142 |
| O=C(c1ccc(-c2ccc(F)cc2F)o1)N1CCc2ccccc2C1 | 17.1 |
| O=C(c1ccc(-c2cccc([N+](=O)[O-])c2)o1)N1CCCc2ccccc21 | 62.3 |
| COc1ccc(C2CNC(=O)C2)cc1OC1CCCC1 (stereo unspecified) [ROLIPRAM] | 18.9 |
| O=C(c1ccc(-c2cccc(F)c2)o1)N1CCc2ccccc2C1 | 78.1 |
| Cc1ccc(-c2ccc(C(=O)N3CCc4ccccc4C3)o2)cc1 | 44.1 |
| O=C(c1ccc(-c2ccc(Cl)cc2)o1)N1CCCc2ccccc21 | 27.2 |
| O=C(c1ccc(-c2c(F)cccc2F)o1)N1CCc2ccccc2C1 | 91.9 |
| O=C(c1ccc(-c2ccc(F)cc2)o1)N1CCCc2ccccc21 | 22.1 |

Continued by falling IC50, values first:

| IC50 [µM] | SMILES |
| --- | --- |
| 188 | O=C(c1ccc(-c2ccccc2)o1)N1CCc2ccccc2C1 |
| 156 | O=C(c1ccc(-c2ccc(Br)cc2)o1)N1CCc2ccccc2C1 |
| 151 | O=C(c1ccc(-c2ccccc2[N+](=O)[O-])o1)N1CCc2ccccc2C1 |
| 131 | O=C(c1ccc(-c2ccc(Br)cc2)o1)N1CCCc2ccccc21 |
| 121 | O=C(c1ccc(-c2ccccc2Cl)o1)N1CCc2ccccc2C1 |
| 101 | O=C(c1ccc(-c2ccccc2Cl)o1)N1CCCc2ccccc21 |
| 95.4 | O=C(c1ccc(-c2ccccc2F)o1)N1CCc2ccccc2C1 |
| 92.8 | O=C(c1ccc(-c2ccccc2F)o1)N1CCCc2ccccc21 |
| 89.3 | O=C(c1ccc(-c2c(F)cccc2F)o1)N1CCCc2ccccc21 |
| 72.5 | O=C(c1ccc(-c2cccc([N+](=O)[O-])c2)o1)N1CCc2ccccc2C1 |
| 64.3 | O=C(c1ccc(-c2cccc(F)c2)o1)N1CCCc2ccccc21 |
| 62.5 | O=C(c1ccc(-c2cccc(Cl)c2)o1)N1CCCc2ccccc21 |
| 46.8 | O=C(c1ccc(-c2ccc([N+](=O)[O-])cc2)o1)N1CCCc2ccccc21 |
| 35.2 | Cc1ccc(-c2ccc(C(=O)N3CCCc4ccccc43)o2)cc1 |
| 28.6 | O=C(c1ccc(-c2ccc(Cl)cc2)o1)N1CCc2ccccc2C1 |
| 27.2 | O=C(c1ccc(-c2ccc(F)cc2)o1)N1CCc2ccccc2C1 |
| 11.8 | COc1ccc(-c2ccc(C(=O)N3CCCc4ccccc43)o2)cc1 |

Species: Homo sapiens
Assay: Selectivity index, ratio of IC50 for human U937 cells-derived PDE4D to IC50 for human U937 cells-derived PDE4B

| SMILES | Ratio IC50 |
| --- | --- |
| O=C(c1ccc(-c2ccc(F)cc2F)o1)N1CCCc2ccccc21 | 6 |
| O=C(c1ccc(-c2ccc([N+](=O)[O-])cc2)o1)N1CCc2ccccc2C1 | 5.39 |
| COc1ccc(-c2ccc(C(=O)N3CCc4ccccc4C3)o2)cc1 | 3.92 |
| O=C(c1ccc(-c2ccc(F)cc2F)o1)N1CCc2ccccc2C1 | 6.03 |
| Cc1ccc(-c2ccc(C(=O)N3CCc4ccccc4C3)o2)cc1 | 6.04 |
| O=C(c1ccc(-c2ccc(Cl)cc2)o1)N1CCCc2ccccc21 | 6.09 |
| O=C(c1ccc(-c2c(F)cccc2F)o1)N1CCc2ccccc2C1 | 4.21 |
| O=C(c1ccc(-c2ccc(F)cc2)o1)N1CCCc2ccccc21 | 6.6 |

Now from value to compound:

| Ratio IC50 | SMILES |
| --- | --- |
| 5.34 | O=C(c1ccc(-c2c(F)cccc2F)o1)N1CCCc2ccccc21 |
| 5.12 | O=C(c1ccc(-c2cccc(Cl)c2)o1)N1CCCc2ccccc21 |
| 6.38 | O=C(c1ccc(-c2ccc([N+](=O)[O-])cc2)o1)N1CCCc2ccccc21 |
| 5.33 | Cc1ccc(-c2ccc(C(=O)N3CCCc4ccccc43)o2)cc1 |
| 6.14 | O=C(c1ccc(-c2ccc(Cl)cc2)o1)N1CCc2ccccc2C1 |
| 6.66 | O=C(c1ccc(-c2ccc(F)cc2)o1)N1CCc2ccccc2C1 |
| 6.86 | COc1ccc(-c2ccc(C(=O)N3CCCc4ccccc43)o2)cc1 |

System: Rattus norvegicus
Assay: Anti-inflammatory activity in Sprague-Dawley rat model of LPS-induced asthma/COPD assessed as inhibition of neutrophilia in BALF at 10 mg/kg, po administered 30 mins prior to LPS challenge for 40 mins and measured after 6 hrs relative to control
Format: functional

| SMILES | inhibition in vivo at 10 mg/kg [%] |
| --- | --- |
| O=C(c1ccc(-c2ccc(F)cc2F)o1)N1CCCc2ccccc21 | 34.1 |
| COc1ccc(-c2ccc(C(=O)N3CCCc4ccccc43)o2)cc1 | 40.1 |
| COc1ccc(-c2ccc(C(=O)N3CCc4ccccc4C3)o2)cc1 | 32.7 |
| O=C(c1ccc(-c2ccc(F)cc2F)o1)N1CCc2ccccc2C1 | 29.5 |
| COc1ccc(C2CNC(=O)C2)cc1OC1CCCC1 (stereo unspecified) [ROLIPRAM] | 34.2 |

Molecular target: 3',5'-cyclic-AMP phosphodiesterase 4D (Homo sapiens, UniProt Q08499)
Assay: Inhibition of human U937 cells-derived PDE4D using [3H]-cAMP as substrate after 30 mins

3',5'-cyclic-AMP phosphodiesterase 4D, sequence (Q08499 whole entry): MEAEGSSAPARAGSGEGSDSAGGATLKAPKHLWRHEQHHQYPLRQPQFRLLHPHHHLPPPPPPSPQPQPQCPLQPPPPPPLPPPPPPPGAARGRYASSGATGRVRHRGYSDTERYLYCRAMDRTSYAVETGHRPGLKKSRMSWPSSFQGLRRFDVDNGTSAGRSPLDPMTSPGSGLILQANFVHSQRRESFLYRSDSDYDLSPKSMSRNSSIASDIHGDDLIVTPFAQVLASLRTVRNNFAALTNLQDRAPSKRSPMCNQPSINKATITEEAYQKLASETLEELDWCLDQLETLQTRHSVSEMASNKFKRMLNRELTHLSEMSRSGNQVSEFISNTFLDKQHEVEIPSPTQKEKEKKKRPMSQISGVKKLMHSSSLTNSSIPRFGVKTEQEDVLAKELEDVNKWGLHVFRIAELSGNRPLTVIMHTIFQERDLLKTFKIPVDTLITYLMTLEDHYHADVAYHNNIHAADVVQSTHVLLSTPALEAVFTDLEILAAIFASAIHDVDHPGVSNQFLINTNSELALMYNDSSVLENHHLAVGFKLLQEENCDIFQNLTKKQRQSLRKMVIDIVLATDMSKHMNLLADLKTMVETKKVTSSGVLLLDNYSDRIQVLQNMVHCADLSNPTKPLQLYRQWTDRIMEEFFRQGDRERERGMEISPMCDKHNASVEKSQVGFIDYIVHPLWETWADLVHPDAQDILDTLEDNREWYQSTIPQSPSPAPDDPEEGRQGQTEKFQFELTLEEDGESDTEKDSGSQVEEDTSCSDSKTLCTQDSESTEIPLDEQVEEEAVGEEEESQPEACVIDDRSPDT

| SMILES | IC50 [µM] |
| --- | --- |
| O=C(c1ccc(-c2ccc(F)cc2F)o1)N1CCCc2ccccc21 | 15.6 |
| O=C(c1ccc(-c2ccc([N+](=O)[O-])cc2)o1)N1CCc2ccccc2C1 | 88.3 |
| COc1ccc(-c2ccc(C(=O)N3CCc4ccccc4C3)o2)cc1 | 10.2 |
| O=C(c1ccc(-c2ccc(F)cc2F)o1)N1CCc2ccccc2C1 | 18.1 |
| Cc1ccc(-c2ccc(C(=O)N3CCc4ccccc4C3)o2)cc1 | 56.8 |
| O=C(c1ccc(-c2ccc(Cl)cc2)o1)N1CCCc2ccccc21 | 21.3 |
| O=C(c1ccc(-c2c(F)cccc2F)o1)N1CCc2ccccc2C1 | 89.2 |
| O=C(c1ccc(-c2ccc(F)cc2)o1)N1CCCc2ccccc21 | 40.3 |

The remaining lines, values ahead:

| IC50 [µM] | SMILES |
| --- | --- |
| 81.3 | O=C(c1ccc(-c2c(F)cccc2F)o1)N1CCCc2ccccc21 |
| 96.8 | O=C(c1ccc(-c2cccc(Cl)c2)o1)N1CCCc2ccccc21 |
| 77.2 | O=C(c1ccc(-c2ccc([N+](=O)[O-])cc2)o1)N1CCCc2ccccc21 |
| 50.1 | Cc1ccc(-c2ccc(C(=O)N3CCCc4ccccc43)o2)cc1 |
| 25.2 | O=C(c1ccc(-c2ccc(Cl)cc2)o1)N1CCc2ccccc2C1 |
| 49.3 | O=C(c1ccc(-c2ccc(F)cc2)o1)N1CCc2ccccc2C1 |
| 10.3 | COc1ccc(-c2ccc(C(=O)N3CCCc4ccccc43)o2)cc1 |

System: Mus musculus
Assay: Anti-inflammatory activity in Swiss albino mouse model of sepsis assessed as inhibition of LPS-induced TNFalpha release at 10 mg/kg, po administered 30 mins prior to LPS challenge for 90 mins by ELISA relative to control
Format: functional

| SMILES | inhibition in vivo at 10 mg/kg [%] |
| --- | --- |
| O=C(c1ccc(-c2ccc(F)cc2F)o1)N1CCCc2ccccc21 | 39.6 |
| COc1ccc(-c2ccc(C(=O)N3CCCc4ccccc43)o2)cc1 | 46.8 |
| COc1ccc(-c2ccc(C(=O)N3CCc4ccccc4C3)o2)cc1 | 39.2 |
| O=C(c1ccc(-c2ccc(F)cc2F)o1)N1CCc2ccccc2C1 | 30.8 |
| COc1ccc(C2CNC(=O)C2)cc1OC1CCCC1 (stereo unspecified) [ROLIPRAM] | 42.9 |
